For experiment [1], the target named is Sodium-dependent serotonin transporter. The experiment is described as follows: Inhibition of [3H]citalopram binding to the serotonin transporter in the cynomolgus (macaca fascicularis) monkey caudate-putamen. The format is tissue-based, Cercopithecidae.
A short description of experiment [2]: Inhibition of [3H]WIN-35428 binding to the dopamine transporter in the cynomolgus (macaca fascicularis) monkey caudate-putamen.

From ChEMBL document CHEMBL1129654, “2-Carbomethoxy-3-(diarylmethoxy)-1 alpha H, 5 alpha H-tropane analogs: synthesis and inhibition of binding at the dopamine transporter and comparison with piperazines of the GBR series” (J Med Chem, 1996) come the findings set out here.

The structures appear in SMILES notation.

In experiment [1], `COC(=O)C1C2CC[C@@H](C[C@@H]1OC(c1ccc(F)cc1)c1ccc(F)cc1)N2C` (stereo partly drawn) gave a concentration for half-maximal inhibition (IC50) of 3.53 µM.

For the molecule `COC(=O)C1C2CCC(C[C@@H]1OC(c1ccccc1)c1ccc(Br)cc1)N2C` (stereo partly drawn), the concentration for half-maximal inhibition (IC50) came out at 5.77 µM in experiment [1] and 0.024 µM in experiment [2].

On to `COC(=O)C1C2CCC(C[C@@H]1OC1c3ccccc3-c3ccccc31)N2C` (stereo partly drawn), for which the values for the concentration for half-maximal inhibition (IC50) in experiment [1] and in experiment [2] were 3.44 µM and 6.03 µM, respectively.

In the case of `COC(=O)C1C2CCC(C[C@@H]1OC(c1ccccc1)c1ccc(Cl)cc1)N2C` (stereo partly drawn), the IC50 in experiment [1] amounted to 5.96 µM.

As for `COC(=O)C1C2CCC(C[C@@H]1OC(c1ccc(C)cc1)c1ccc(C)cc1)N2C` (stereo partly drawn), the IC50 in experiment [1] is 9.8 µM; in experiment [2] it was 0.24 µM.

`COC(=O)C1C2CCC(C[C@@H]1OC(c1ccccc1)c1ccc(C)cc1)N2C` (stereo partly drawn) had a 50% inhibitory concentration (IC50) in experiment [1] of 13.2 µM.

In the case of `COC(=O)C1C2CCC(C[C@@H]1OC(c1ccc(I)cc1)c1ccc(I)cc1)N2C` (stereo partly drawn), in experiment [1], the 50% inhibitory concentration (IC50) was 8.55 µM.

For the molecule `CN1C2CCC1CC(OC(c1ccc(F)cc1)c1ccc(F)cc1)C2` (stereo not drawn) [DIFLUOROBENZTROPINE], the half-inhibitory concentration (IC50) in experiment [1] is 5.34 µM.

In the case of `COC(=O)C1C2CCC(C[C@@H]1OC(c1ccccc1)c1ccc(F)cc1)N2C` (stereo partly drawn), the IC50 in experiment [1] stood at 4.93 µM; in experiment [2], 0.0132 µM.

As to `COC(=O)C1C2CCC(C[C@@H]1OC(c1ccc(Cl)cc1)c1ccc(Cl)cc1)N2C` (stereo partly drawn), the figures for the IC50 in experiment [1] and in experiment [2] were 3.36 µM and 0.0914 µM, respectively.

In experiment [1], `COC(=O)C1C2CCC(C[C@@H]1OC(c1ccc(Br)cc1)c1ccc(Br)cc1)N2C` (stereo partly drawn) showed an IC50 of 2.43 µM.

`COC(=O)C1C2CCC(C[C@@H]1OC(c1ccccc1)c1ccc(I)cc1)N2C` (stereo partly drawn) yielded an IC50 in experiment [1] of 9.28 µM.

For `COC(=O)C1C2CCC(C[C@@H]1OC(c1ccc(F)cc1)c1ccc(F)cc1)N2CCCCCc1ccccc1` (stereo partly drawn), the values for the IC50 in experiment [1] and in experiment [2] were 0.55 µM and 0.099 µM, respectively.

In experiment [1], `COC(=O)C1C2CCC(C[C@@H]1OC(c1ccc(F)cc1)c1ccc(F)cc1)N2CCCc1ccc(Br)cc1` (stereo partly drawn) showed a half-maximal inhibitory concentration (IC50) of 0.234 µM.

`COC(=O)C1C2CCC(C[C@@H]1OC(c1ccc(F)cc1)c1ccc(F)cc1)N2Cc1ccccc1` (stereo partly drawn) gave a half-inhibitory concentration (IC50) in experiment [1] of 4.97 µM.

Regarding `CCC(O[C@H]1CC2CCC(C1C(=O)OC)N2C)c1ccccc1` (stereo partly drawn), the half-inhibitory concentration (IC50) in experiment [1] was 21 µM.

In the case of `COC(=O)C1C2CCC(C[C@@H]1OC(c1ccc(F)cc1)c1ccc(F)cc1)N2CCCc1ccccc1` (stereo partly drawn), the IC50 in experiment [1] amounted to 0.0197 µM.

For `COC(=O)C1C2CCC(C[C@@H]1OC(c1ccc(F)cc1)c1ccc(F)cc1)N2CCCc1ccc(I)cc1` (stereo partly drawn), the 50% inhibitory concentration (IC50) in experiment [1] turned out to be 2.2 µM; in experiment [2] it was 0.119 µM.

Consider `COC(=O)C1C2CCC(C[C@@H]1OC(c1ccc(Br)cc1)c1ccc(I)cc1)N2C` (stereo partly drawn), for which the concentration for half-maximal inhibition (IC50) in experiment [1] is 4.39 µM; in experiment [2] it was 0.389 µM.

As for `COC(=O)C1C2CCC(C[C@@H]1OC(c1ccccc1)c1ccccc1)N2C` (stereo partly drawn), in experiment [1], the IC50 was determined as 10.1 µM.

Usually IC50 stands for the concentration at which inhibition is half-maximal.
